Laboratory results from PubChem BioAssay AID1259407 (Chemical Carcinogenesis Research Information System (CCRIS), 2018).
The source made the active and inactive calls. How the calls were made is not given here.

Tested on: CCRIS mutagenicity, Ames/micronucleus/aberration tests
Assay: CCRIS mutagenicity studies
[1] = Test System: AMES SALMONELLA TYPHIMURIUM, Strain/Indicator: TA98, Metabolic Activation: NONE, Method: PREINCUBATION
[2] = Test System: AMES SALMONELLA TYPHIMURIUM, Strain/Indicator: TA100, Metabolic Activation: NONE, Method: PREINCUBATION

In the case of CC/C=C/C#N, the mutagenic call (Test System: AMES SALMONELLA TYPHIMURIUM, Strain/Indicator: TA97, Metabolic Activation: HAMSTER, LIVER, S-9, AROCLOR 1254 (10%), Method: PREINCUBATION) was “inactive; negative”, the mutagenic call (Test System: AMES SALMONELLA TYPHIMURIUM, Strain/Indicator: TA97, Metabolic Activation: HAMSTER, LIVER, S-9, AROCLOR 1254 (30%), Method: PREINCUBATION) was “inactive; negative” and the mutagenic call (Test System: AMES SALMONELLA TYPHIMURIUM, Strain/Indicator: TA97, Metabolic Activation: NONE, Method: PREINCUBATION) was “inactive; negative”. For the same compound, the mutagenic call (Test System: AMES SALMONELLA TYPHIMURIUM, Strain/Indicator: TA97, Metabolic Activation: RAT, LIVER, S-9, AROCLOR 1254 (10%), Method: PREINCUBATION) was “inactive; negative”, the mutagenic call (Test System: AMES SALMONELLA TYPHIMURIUM, Strain/Indicator: TA97, Metabolic Activation: RAT, LIVER, S-9, AROCLOR 1254 (30%), Method: PREINCUBATION) was “inactive; negative” and the mutagenic call (Test System: AMES SALMONELLA TYPHIMURIUM, Strain/Indicator: TA98, Metabolic Activation: HAMSTER, LIVER, S-9, AROCLOR 1254 (10%), Method: PREINCUBATION) was “inactive; negative”. The mutagenic call (Test System: AMES SALMONELLA TYPHIMURIUM, Strain/Indicator: TA98, Metabolic Activation: HAMSTER, LIVER, S-9, AROCLOR 1254 (30%), Method: PREINCUBATION) was “inactive; negative”, the mutagenic call [1] was “inactive; negative” and the mutagenic call (Test System: AMES SALMONELLA TYPHIMURIUM, Strain/Indicator: TA98, Metabolic Activation: RAT, LIVER, S-9, AROCLOR 1254 (10%), Method: PREINCUBATION) was “inactive; negative”. For the same compound, the mutagenic call (Test System: AMES SALMONELLA TYPHIMURIUM, Strain/Indicator: TA98, Metabolic Activation: RAT, LIVER, S-9, AROCLOR 1254 (30%), Method: PREINCUBATION) was “inactive; negative”, the mutagenic call (Test System: AMES SALMONELLA TYPHIMURIUM, Strain/Indicator: TA100, Metabolic Activation: HAMSTER, LIVER, S-9, AROCLOR 1254 (10%), Method: PREINCUBATION) was “inactive; negative” and the mutagenic call (Test System: AMES SALMONELLA TYPHIMURIUM, Strain/Indicator: TA100, Metabolic Activation: HAMSTER, LIVER, S-9, AROCLOR 1254 (30%), Method: PREINCUBATION) was “inactive; negative”. For the same compound, the mutagenic call [2] was “inactive; negative”, the mutagenic call (Test System: AMES SALMONELLA TYPHIMURIUM, Strain/Indicator: TA100, Metabolic Activation: RAT, LIVER, S-9, AROCLOR 1254 (10%), Method: PREINCUBATION) was “inactive; negative” and the mutagenic call (Test System: AMES SALMONELLA TYPHIMURIUM, Strain/Indicator: TA100, Metabolic Activation: RAT, LIVER, S-9, AROCLOR 1254 (30%), Method: PREINCUBATION) was “inactive; negative”. The mutagenic call (Test System: AMES SALMONELLA TYPHIMURIUM, Strain/Indicator: TA1535, Metabolic Activation: HAMSTER, LIVER, S-9, AROCLOR 1254 (10 OR 30%), Method: PREINCUBATION) was “inactive; negative”, the mutagenic call (Test System: AMES SALMONELLA TYPHIMURIUM, Strain/Indicator: TA1535, Metabolic Activation: NONE, Method: PREINCUBATION) was “inactive; negative” and the mutagenic call (Test System: AMES SALMONELLA TYPHIMURIUM, Strain/Indicator: TA1535, Metabolic Activation: RAT, LIVER, S-9, AROCLOR 1254 (10%), Method: PREINCUBATION) was “inactive; negative”. The mutagenic call (Test System: AMES SALMONELLA TYPHIMURIUM, Strain/Indicator: TA1535, Metabolic Activation: RAT, LIVER, S-9, AROCLOR 1254 (30%), Method: PREINCUBATION) was “inactive; negative” and the mutagenic call (Test System: AMES SALMONELLA TYPHIMURIUM, Strain/Indicator: TA1537, Metabolic Activation: HAMSTER, LIVER, S-9, AROCLOR 1254 (10 OR 30%), Method: PREINCUBATION) was “inactive; negative”.

COC(=O)c1oc(NOC(C)=O)c(-c2ccccc2)c1-c1ccccc1 was tested, and the mutagenic call [1] was “inactive; negative”, the mutagenic call (Test System: AMES SALMONELLA TYPHIMURIUM, Strain/Indicator: TA98, Metabolic Activation: RAT, LIVER, S-9, AROCLOR, Method: PREINCUBATION) was “inactive; negative” and the mutagenic call [2] was “inactive; negative”. For the same compound, the mutagenic call (Test System: AMES SALMONELLA TYPHIMURIUM, Strain/Indicator: TA100, Metabolic Activation: RAT, LIVER, S-9, AROCLOR, Method: PREINCUBATION) was “inactive; negative”.

For COC(=O)/C(C#N)=C/c1ccco1, the mutagenic call [1] was “inactive; negative”.

With N#Cc1cc(Br)c(O)c(Br)c1 the mutagenic call (Test System: AMES SALMONELLA TYPHIMURIUM, Strain/Indicator: TA98, Metabolic Activation: HAMSTER, LIVER, S-9, AROCLOR 1254 (10%), Method: STANDARD PLATE) was “inactive; negative”, the mutagenic call (Test System: AMES SALMONELLA TYPHIMURIUM, Strain/Indicator: TA98, Metabolic Activation: NONE, Method: STANDARD PLATE) was “inactive; negative” and the mutagenic call (Test System: AMES SALMONELLA TYPHIMURIUM, Strain/Indicator: TA98, Metabolic Activation: RAT, LIVER, S-9, AROCLOR 1254 (10%), Method: STANDARD PLATE) was “inactive; negative”. For the same compound, the mutagenic call (Test System: AMES SALMONELLA TYPHIMURIUM, Strain/Indicator: TA100, Metabolic Activation: HAMSTER, LIVER, S-9, AROCLOR 1254 (10%), Method: STANDARD PLATE) was “inactive; negative”, the mutagenic call (Test System: AMES SALMONELLA TYPHIMURIUM, Strain/Indicator: TA100, Metabolic Activation: NONE, Method: STANDARD PLATE) was “inactive; negative” and the mutagenic call (Test System: AMES SALMONELLA TYPHIMURIUM, Strain/Indicator: TA100, Metabolic Activation: RAT, LIVER, S-9, AROCLOR 1254 (10%), Method: STANDARD PLATE) was “inactive; negative”. For the same compound, the mutagenic call (Test System: AMES SALMONELLA TYPHIMURIUM, Strain/Indicator: TA1535, Metabolic Activation: HAMSTER, LIVER, S-9, AROCLOR 1254 (10%), Method: STANDARD PLATE) was “inactive; negative”, the mutagenic call (Test System: AMES SALMONELLA TYPHIMURIUM, Strain/Indicator: TA1535, Metabolic Activation: NONE, Method: STANDARD PLATE) was “inactive; negative” and the mutagenic call (Test System: AMES SALMONELLA TYPHIMURIUM, Strain/Indicator: TA1535, Metabolic Activation: RAT, LIVER, S-9, AROCLOR 1254 (10%), Method: STANDARD PLATE) was “inactive; negative”. For the same compound, the mutagenic call (Test System: AMES SALMONELLA TYPHIMURIUM, Strain/Indicator: TA1537, Metabolic Activation: HAMSTER, LIVER, S-9, AROCLOR 1254 (10%), Method: STANDARD PLATE) was “inactive; negative”, the mutagenic call (Test System: AMES SALMONELLA TYPHIMURIUM, Strain/Indicator: TA1537, Metabolic Activation: NONE, Method: STANDARD PLATE) was “inactive; negative” and the mutagenic call (Test System: AMES SALMONELLA TYPHIMURIUM, Strain/Indicator: TA1537, Metabolic Activation: RAT, LIVER, S-9, AROCLOR 1254 (10%), Method: STANDARD PLATE) was “inactive; negative”. The mutagenic call (Test System: AMES SALMONELLA TYPHIMURIUM, Strain/Indicator: TA1538, Metabolic Activation: HAMSTER, LIVER, S-9, AROCLOR 1254 (10%), Method: STANDARD PLATE) was “inactive; negative”, the mutagenic call (Test System: AMES SALMONELLA TYPHIMURIUM, Strain/Indicator: TA1538, Metabolic Activation: NONE, Method: STANDARD PLATE) was “inactive; negative” and the mutagenic call (Test System: AMES SALMONELLA TYPHIMURIUM, Strain/Indicator: TA1538, Metabolic Activation: RAT, LIVER, S-9, AROCLOR 1254 (10%), Method: STANDARD PLATE) was “inactive; negative”. The mutagenic call (Test System: MOUSE LYMPHOMA, Strain/Indicator: L5178Y (TK+/TK-), Metabolic Activation: RAT, LIVER, S-9, AROCLOR 1254, Method: SUSPENSION/PLATE) was “active; positive. reevaluation of results: equivocal” and the mutagenic call (Test System: Mouse lymphoma, Strain/Indicator: L5178Y (tk+/tk-), Metabolic Activation: None, Method: Suspension/plate) was “inactive; negative”.

With c1ccc2c(c1)ccc1ccc3sccc3c12 the mutagenic call (Test System: Ames Salmonella typhimurium, Strain/Indicator: TA100, Metabolic Activation: None, Method: Plate incorporation) was “active; positive” and the mutagenic call (Test System: Ames Salmonella typhimurium, Strain/Indicator: TA104, Metabolic Activation: None, Method: Plate incorporation) was “inactive; negative”.

For Oc1c(O)c(Cl)c(Cl)c(Cl)c1Cl, the mutagenic call (Test System: CHINESE HAMSTER V-79, Strain/Indicator: V-79/6-THIOGUANINE (HGPRT), Metabolic Activation: NONE, Method: SUSPENSION/PLATE) was “inactive; negative”, the mutagenic call (Test System: CHINESE HAMSTER V-79, Strain/Indicator: V-79/6-THIOGUANINE, Metabolic Activation: NONE, Method: STANDARD PLATE) was “inactive; negative” and the mutagenic call (Test System: CHINESE HAMSTER V-79, Strain/Indicator: V-79/6-THIOGUANINE, Metabolic Activation: PRIMARY RAT HEPATOCYTES, Method: STANDARD PLATE) was “inactive; negative”. For the same compound, the mutagenic call (Test System: CHINESE HAMSTER V-79, Strain/Indicator: V-79/OUABAIN, Metabolic Activation: NONE, Method: SUSPENSION/PLATE) was “inactive; negative”.
